Reference: US6060468A, “N-substituted azaheterocyclic compounds” (Novo Nordisk A/S, priority 1996, dated 2000)

Tested on: histamine induced paw oedema
Test: Histamine induced paw oedema (rat)
Format: in vivo, male Sprague-Dawley rats
Details: 1.0 mg/kg, intraperitoneal, 15 min before anaesthetics; histamine 50 microliter 3 mg/ml in right hind paw; swelling after 20 min
Description: I. Histamine Induced Paw Oedema The rat histamine paw oedema test was performed essentially as described by Amann et al. (Europ. J. Pharmacol. 279, 227-231, 1995). In brief 250-300 g male Sprague-Dawley rats were anaesthetized with pentobarbital sodium, and placed on a 32 degree (Celsius) heated table. Ten minutes later histamine (50 micoliter, 3 mg/ml) was injected in the right hind paw and 20 minutes hereafter the paw swelling was determined by water plethysmography (Ugo Basile). Test compounds were administered intraperitoneally at 15 minutes before the anaesthetics. Values for inhibition of histamine induced oedema response for some representative compounds are recorded in table 1.

Row | SMILES | % Oedema inhibition (inhibition of histamine induced oedema response) [%]
1 | O=C(O)[C@@H]1CCCN(CCOC2Cc3ccccc3Sc3ccccc32)C1 (stereo partly drawn) [Example 1, 1-(2-(10,11-Dihydrodibenzo[b,f]thiepin-10-yloxy)-1-ethyl)-(3R)-piperidinecarboxylic acid acetate] | 37
2 | Cc1ccc2c(c1)CC(OCCN1CCCC(C(=O)O)C1)c1ccccc1S2.O=C(O)C(=O)O (centres unmarked) [Example 5, 1-(2-(2-Methyl-10,11-dihydrodibenzo[b,f]thiepin-10-yloxy)-1-ethyl)-3-piperidinecarboxylic acid hydrogen oxalate] | 49
